Here are results for twelve molecules from paper PMC8840612, “Inhibition of α-Glucosidase, Acetylcholinesterase, and Nitric Oxide Production by Phytochemicals Isolated from Millettia speciosa—In Vitro and Molecular Docking Studies” (Plants, 2022).

The target of data set [1] is acetylcholinesterase (AChE) (Homo sapiens, UniProt P22303). Kind of data set: biochemical. As for the experimental part: The acetylcholinesterase activity was determined by a colorimetric assay based on Ellman’s methodology. […] They were dissolved in DMSO and then diluted with buffer (50 mM of Tris-HCl, with a pH of 8 containing 0.1 M NaCl), 0.1% bovine serum albumin (BSA), 25 µL of acetylthiocholine iodide. The plate was incubated at 25 °C for 15 min. […] Each assay was done in triplicate. The percentage of inhibition of AChE was determined by the following formula: Inhibition (%) = [(OD of control − OD of sample)/OD of control] × 100.

A further data set deals with RAW 264.7 cells. Kind of data set: Cell viability (MTT) assay for cytotoxicity. Format: cell-based. As for the experimental part:
The cells were diluted to a suitable cell density. One hundred eighty microliters of the cells were added to each well of the plate and incubated at 37 °C, 5% CO2 for 72 h. After the incubation, 10 µL of MTT solution (5 mg/mL) was added. […] Cell viability was calculated based on the formula as follows:Cell viability (%) = [(OD Sample)/(OD Control)] × 100%, where OD is the optical density recorded at 540 nm.

In data set [2] the test system is NO production in lipopolysaccharide (LPS)-stimulated RAW 264.7 cells. Kind of data set: Inhibition of NO production in LPS-stimulated RAW 264.7 cells (Griess assay). Type of data set: cell-based. As to conditions: for IC50 / inhibition at 500 µg/mL: Mus musculus; for IC50: RAW264.7, LPS-stimulated RAW 264.7 cells; for IC50 / IC50 for the inhibition of NO production: tested 0.8–500 µg/mL, mean of three replicates ± SD; for inhibition at 500 µg/mL: RAW264.7; for inhibition at 500 µg/mL / IC50 for the inhibition of NO production: LPS-stimulated RAW 264.7 cells. The method, then:
It was supplemented with 10% fetal bovine serum (FBS) and incubated at 37 °C in humidified air with 5% CO2. […] Next, 100 μL of Griess reagent (50 μL of 1% (w/v) sulfanilamide in 5% (v/v) phosphoric acid and 50 μL of 0.1% (w/v) N-1-naphthylethylenediamine dihydrochloride) was added, and it was incubated at room temperature for about 10 min. The Griess Reagent System from Promega Cooperation (USA) was used to determine the presence of nitrite. The microplate reader was used to assess absorption at 540 nm. N^G-Methyl-L-arginine acetate (L-NMMA) (Sigma) was used as a positive control at doses of […]. […] The experiments were repeated at least three times independently.

Data set [3] has as its target α-glucosidase from Saccharomyces cerevisiae (Saccharomyces cerevisiae, UniProt P53341). Kind of data set: In vitro α-glucosidase inhibition (p-NPG substrate).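 As to all read-outs here: yeast α-glucosidase at 0.2 U/mL with p-nitrophenyl α-D-glucopyranoside substrate in 100 mM potassium phosphate pH 6.8, product read by absorbance at 410 nm.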 As to conditions: for IC50: IC50 for inhibition of α-glucosidase, tested 1–256 µg/mL, mean of three replicates ± SD; for inhibition at 1 µg/mL / inhibition at 4 µg/mL / inhibition at 16 µg/mL / inhibition at 64 µg/mL / inhibition at 256 µg/mL: read-out: α-Glucosidase Inhibition (%).

A further data set deals with α-glucosidase. As to conditions: cited from earlier work.
In another data set the test system is NO formation. Further details: method as in doi:10.20307/nps.2019.25.1.34. Conditions: at 40 µg/mL; ursolic acid isolated from Phryma leptostachya var. asiatica; cited from earlier work.
The next data set has as its system NO production. Conditions: at a high concentration of 1000 µM; cited from earlier work.
The mark [4] stands for this setting: tested 1 to 256 µg/mL, triplicate, read-out: IC50 for acetylcholinesterase inhibition (converted).
The mark [5] stands for this setting: cell viability assay, concentrations as in NO assay.

In brackets after ≈: the same amount, converted by molar mass. Read-outs that look alike come from different tables or passages of the source.

Sequence of α-glucosidase from Saccharomyces cerevisiae (P53341 whole entry): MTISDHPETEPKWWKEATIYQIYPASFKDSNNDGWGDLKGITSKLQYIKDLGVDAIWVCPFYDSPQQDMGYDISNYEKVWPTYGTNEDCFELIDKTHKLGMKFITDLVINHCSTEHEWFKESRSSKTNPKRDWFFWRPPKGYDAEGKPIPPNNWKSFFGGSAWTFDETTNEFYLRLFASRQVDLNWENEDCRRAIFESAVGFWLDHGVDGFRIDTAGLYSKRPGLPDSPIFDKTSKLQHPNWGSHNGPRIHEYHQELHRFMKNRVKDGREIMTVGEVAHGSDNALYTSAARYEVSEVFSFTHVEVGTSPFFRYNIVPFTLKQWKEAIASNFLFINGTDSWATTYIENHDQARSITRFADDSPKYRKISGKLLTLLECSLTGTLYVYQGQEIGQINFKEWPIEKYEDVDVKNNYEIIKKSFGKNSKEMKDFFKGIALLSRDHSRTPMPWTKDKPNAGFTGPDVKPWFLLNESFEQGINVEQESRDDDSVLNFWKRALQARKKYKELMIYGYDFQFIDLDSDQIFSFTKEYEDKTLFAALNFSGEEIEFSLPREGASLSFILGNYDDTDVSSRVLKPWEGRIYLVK
Sequence of acetylcholinesterase (AChE) (P22303 32-614): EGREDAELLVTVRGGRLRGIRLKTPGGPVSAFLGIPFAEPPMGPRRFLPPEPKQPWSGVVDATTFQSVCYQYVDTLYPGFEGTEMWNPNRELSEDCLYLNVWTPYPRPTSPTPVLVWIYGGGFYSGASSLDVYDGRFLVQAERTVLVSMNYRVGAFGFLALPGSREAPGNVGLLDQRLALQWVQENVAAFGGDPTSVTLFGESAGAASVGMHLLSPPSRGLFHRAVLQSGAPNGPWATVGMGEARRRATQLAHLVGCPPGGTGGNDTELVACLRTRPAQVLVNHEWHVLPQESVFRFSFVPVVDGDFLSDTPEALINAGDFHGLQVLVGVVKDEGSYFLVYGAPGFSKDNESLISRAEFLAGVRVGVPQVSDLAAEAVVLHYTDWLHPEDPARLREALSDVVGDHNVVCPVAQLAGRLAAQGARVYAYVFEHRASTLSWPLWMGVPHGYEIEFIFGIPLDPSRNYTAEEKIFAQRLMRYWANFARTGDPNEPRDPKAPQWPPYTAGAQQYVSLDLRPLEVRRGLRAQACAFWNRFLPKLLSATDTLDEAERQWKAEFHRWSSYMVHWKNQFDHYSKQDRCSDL

Regarding `C[C@@H]1CC[C@]2(C(=O)O[C@@H]3O[C@H](CO)[C@@H](O)[C@H](O)[C@H]3O)CC[C@]3(C)C(=CC[C@@H]4[C@@]5(C)CC[C@H](O)[C@@](C)(CO)[C@@H]5CC[C@]43C)[C@@H]2[C@]1(C)O` [Compound 3, pedunculoside], in data set [1], the half-inhibitory concentration (IC50) is greater than 393 µM. Moreover, the “Cytotoxicity against RAW 264.7 cells” value in the data set with RAW 264.7 cells is given as “without cytotoxicity”. This molecule also registered an IC50 in data set [2] of 273 ± 8.2 µg/mL (≈ 420 µM). In data set [3], the “Fold Change” value is 0.918, the IC50 is 284 µM, the inhibition at 1 µg/mL was 1% and the inhibition at 4 µg/mL was found to be 3%. Further, in data set [3], the inhibition at 16 µg/mL was found to be 9.5%, the inhibition at 64 µg/mL was 32% and the inhibition at 256 µg/mL is 60.5%.
Take `O=c1c(-c2ccc(O)cc2)coc2cc(O[C@@H]3O[C@H](CO)[C@@H](O)[C@H](O)[C@H]3O)ccc12` [Compound 9, daidzin]: the IC50 in data set [1] was greater than 615 µM. Moreover, in data set [2], the IC50 is greater than 500 µg/mL and at 500 µg/mL the inhibition was 39.5%. In data set [3], the “Fold Change” value is listed as less than 0.663, the concentration for half-maximal inhibition (IC50) is greater than 615 µM, the inhibition at 1 µg/mL was 0% and the inhibition at 4 µg/mL worked out at 0%. In addition, in data set [3], the inhibition at 16 µg/mL came to 4%, the inhibition at 64 µg/mL is 10% and the inhibition at 256 µg/mL was 22%.
In the case of `C[C@@H]1CC[C@]2(C(=O)O)CC[C@]3(C)C(=CC[C@@H]4[C@@]5(C)CC[C@H](O)[C@@](C)(CO)[C@@H]5CC[C@]43C)[C@@H]2[C@]1(C)O` [Compound 2, rotundic acid], the IC50 in data set [1] (setting [4]) was greater than 524 µM. In data set [2], the “IC50 for the inhibition of NO production” value is listed as 241.3 ± 8.2 µg/mL and the midpoint of inhibition, the IC50, lay at 241 µg/mL (≈ 494 µM). For the same molecule, in data set [3], the “Fold Change” value is given as less than 0.663, the 50% inhibitory concentration (IC50) was greater than 524 µM, the inhibition at 1 µg/mL is 1% and the inhibition at 4 µg/mL is 1%. In data set [3], the inhibition at 16 µg/mL came out at 1%, the inhibition at 64 µg/mL stood at 4% and the inhibition at 256 µg/mL is 33%.
With `C[C@H]1[C@H](C)CC[C@]2(CO)CC[C@]3(C)C(=CC[C@@H]4[C@@]5(C)CC[C@H](O)C(C)(C)[C@@H]5CC[C@]43C)[C@H]12` [Compound 4, uvaol], the values for the half-maximal inhibitory concentration (IC50) in data set [1] and in data set [2] were greater than 578 µM and 246 µg/mL (≈ 557 µM), respectively. Also, on α-glucosidase (compounds isolated from Clinopodium taxifolium), the “IC50 α-glucosidase” value was 521.0 µg/mL (≈ 1180 µM). Moreover, the “IC50 for the inhibition of NO production” value in data set [2] is listed as 246.5 ± 18.7 µg/mL.
In data set [1], `C[C@@H]1O[C@@H](OC[C@H]2O[C@@H](Oc3c(-c4ccc(O)c(O)c4)oc4cc(O)cc(O)c4c3=O)[C@H](O)[C@@H](O)[C@@H]2O)[C@H](O)[C@H](O)[C@H]1O` [Compound 10, rutin] gave a concentration for half-maximal inhibition (IC50) of 419 µM. The molecule also displayed a half-maximal inhibitory concentration (IC50) in data set [2] of 450 ± 5.2 µg/mL (≈ 736 µM). Besides, in data set [3], half-maximal inhibition (IC50) required 3.6 µM, the inhibition at 1 µg/mL stood at 34.5%, the inhibition at 4 µg/mL is 74% and the inhibition at 16 µg/mL was 78%. Further, in data set [3], the inhibition at 64 µg/mL was found to be 82.5% and the inhibition at 256 µg/mL worked out at 85%.
Regarding `C[C@H]1O[C@H](O[C@H]2[C@H](O)[C@@H](O)[C@@H](O[C@H]3[C@H](O)[C@@H](O)C(O)O[C@@H]3CO)O[C@@H]2CO)[C@H](O)[C@@H](O)[C@@H]1N[C@H]1C=C(CO)[C@@H](O)[C@H](O)[C@H]1O` (stereo partly shown) [acarbose, reference compound], in data set [3], the inhibition at 1 µg/mL came to 0%, the inhibition at 4 µg/mL worked out at 5%, the inhibition at 16 µg/mL was found to be 18% and the inhibition at 64 µg/mL worked out at 23%. Further, the inhibition at 256 µg/mL in data set [3] worked out at 72%.
In data set [1], `CC(C)=CCC[C@](C)(O[C@@H]1O[C@H](CO[C@@H]2O[C@H](CO)[C@@H](O)[C@H](O)[C@H]2O)[C@@H](O)[C@H](O)[C@H]1O)[C@H]1CC[C@]2(C)[C@@H]1[C@H](O)C[C@@H]1[C@@]3(C)CC[C@H](O[C@@H]4O[C@H](CO)[C@@H](O)[C@H](O)[C@H]4O)C(C)(C)[C@@H]3CC[C@]12C` [Compound 6, gypenoside XVII] registered an IC50 greater than 270 µM. For the same molecule, the “Cytotoxicity against RAW 264.7 cells” value in the data set with RAW 264.7 cells (setting [5]) was “no cytotoxicity”. In data set [2], the 50% inhibitory concentration (IC50) is 93.9 ± 5.4 µg/mL (≈ 99.1 µM). Moreover, in data set [3], the “Fold Change” value is reported as less than 0.663, the IC50 was greater than 270 µM, the inhibition at 1 µg/mL came out at 1% and the inhibition at 4 µg/mL was found to be 5%. In data set [3], the inhibition at 16 µg/mL worked out at 17%, the inhibition at 64 µg/mL worked out at 21% and the inhibition at 256 µg/mL came out at 34%.
Consider `COc1ccc2c(c1)OC[C@H]1c3cc4c(cc3O[C@@H]21)OCO4` [Compound 7, pterocarpin], for which the IC50 in data set [1] (setting [4]) was greater than 858 µM. For the same molecule, in data set [2], the IC50 was found to be 229 ± 18.6 µg/mL (≈ 767 µM). In addition, in data set [3], the “Fold Change” value is less than 0.663, the IC50 was greater than 858 µM, the inhibition at 1 µg/mL turned out to be 0% and the inhibition at 4 µg/mL is 3%. For the same molecule, in data set [3], the inhibition at 16 µg/mL worked out at 3%, the inhibition at 64 µg/mL is 12% and the inhibition at 256 µg/mL was 25%.
As to `C[C@H]1[C@H](C)CC[C@]2(C(=O)O)CC[C@]3(C)C(=CC[C@@H]4[C@@]5(C)CC[C@H](O)C(C)(C)[C@@H]5CC[C@]43C)[C@H]12` [Compound 5, ursolic acid], in data set [1] (setting [4]), the half-maximal inhibitory concentration (IC50) is 17.5 µM. For the same molecule, the “Effect on NO formation” value with NO formation is 80.6%. Besides, in the data set on α-glucosidase, the “Manner of α-glucosidase inhibition” value is reported as “non-competitive”. For the same molecule, the “Reduction of cell growth” value with RAW 264.7 cells (at 100 µg/mL, RAW 264.7 cells, MTT) is on record as 23.3%. The “Cytotoxicity against RAW 264.7 cells” value in the data set with RAW 264.7 cells (setting [5]) is “moderate cytotoxicity”. In data set [2], this molecule came in with an IC50 of 43.9 ± 3.7 µg/mL (≈ 96.1 µM) and an inhibition at 500 µg/mL of 84%. For the same molecule, in data set [3], the concentration for half-maximal inhibition (IC50) was 2.41 µM, the inhibition at 1 µg/mL amounted to 48.5%, the inhibition at 4 µg/mL turned out to be 91.5% and the inhibition at 16 µg/mL was 95%. In data set [3], the inhibition at 64 µg/mL came to 98% and the inhibition at 256 µg/mL came to 99%.
Regarding `[H]/N=C(/NC)NCCC[C@H](N)C(=O)O` [L-NMMA, N^G-Methyl-L-arginine acetate, reference compound], the midpoint of inhibition in data set [2], the IC50, lay at 8.6 µg/mL.
As to `C[C@H]1C(=O)CC[C@@H]2[C@]1(C)CC[C@H]1[C@@]2(C)CC[C@@]2(C)[C@@H]3CC(C)(C)CC[C@]3(C)CC[C@]12C` [Compound 1, friedelin], the IC50 in data set [1] was greater than 600 µM. For the same molecule, in data set [2], the half-inhibitory concentration (IC50) is greater than 500 µg/mL and at 500 µg/mL the inhibition was 37.6%. Further, in data set [3], the “Fold Change” value is less than 0.663, the half-maximal inhibitory concentration (IC50) is greater than 600 µM, the inhibition at 1 µg/mL was 1% and the inhibition at 4 µg/mL came to 1%. In data set [3], the inhibition at 16 µg/mL worked out at 13%, the inhibition at 64 µg/mL worked out at 20% and the inhibition at 256 µg/mL worked out at 23%.
`COc1cc(/C=C/CO)cc(OC)c1O[C@@H]1O[C@H](CO)[C@@H](O)[C@H](O)[C@H]1O` [Compound 8, syringin] had an IC50 in data set [1] greater than 687 µM. This molecule also gave a half-inhibitory concentration (IC50) in data set [2] of 303 ± 11 µg/mL (≈ 814 µM). Further, in data set [3], the “Fold Change” value is less than 0.663, the IC50 is greater than 687 µM, the inhibition at 1 µg/mL was found to be 0% and the inhibition at 4 µg/mL was determined as 1%. Also, in data set [3], the inhibition at 16 µg/mL came out at 8%, the inhibition at 64 µg/mL is 9% and the inhibition at 256 µg/mL stood at 12%. For the same molecule, the “Blocking of NO production” value with NO production is listed as “not blocked”.
